The values that follow come from US12558428B2, “Heterobifunctional compounds and their use in treating disease” (Halda Therapeutics OpCo, Inc., priority 2024, dated 2026).

Broadly, the GI50 is the concentration giving 50% growth inhibition.

Like-named read-outs stand apart in the source and are kept apart here. Where only a bound is given, the exact number is not on record here.

Common to all, as to type: cell-based
Experiment [1] concerns T-Rex 293 cells having increased expression of estrogen receptor alpha protein. The experiment can be described thus: Cellular growth inhibition assay, T-Rex 293 cells, (+) doxycycline. The note with it: Table 7-A, T-Rex 293 cells with doxycycline (increased ERα expression), 72 hours, CellTiter-Glo, read-out: (+) Dox GI50. The method in brief:
(§1)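 Cells of an inducible ERα-expressing T-Rex 293 clone are seeded in charcoal-dextran FBS medium with or without 3 ng/mL doxycycline, then treated after 24 h with compound dilutions (0.5% DMSO) for 72 h. Growth inhibition is measured by CellTiter-Glo luminescence and expressed as GI50.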
(In general: Cellular ATP, detected with luciferase, serves as a proxy for viable cell number.)

Experiment [2] relates to MCF7 cells (ATCC #HTB-22). Put plainly: Cellular growth inhibition assay, MCF7 cells purchased from ATCC. The note with it: Table 8-A, MCF7 cells purchased from ATCC, six days, CellTiter-Glo, read-out: GI50. The method in brief:
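GI50 values come from a four-parameter fit of CellTiter-Glo 2.0 luminescence after six days of compound exposure at 37° C. Seeding density depended on the source: 225 cells/well for ECACC MCF7, 1,500 for ATCC. Medium was RPMI 1640 with 10% FBS and 0.2 U/ml insulin.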

Experiment [3] deals with T-Rex 293 cells lacking increased expression of estrogen receptor alpha protein. The experiment can be described thus: Cellular growth inhibition assay, T-Rex 293 cells, (−) doxycycline. The note with it: Table 7-A, T-Rex 293 cells without doxycycline (lacking increased ERα expression), 72 hours, CellTiter-Glo, read-out: (−) Dox GI50. In short, it runs like this: as §1

With `Cc1sc2c(c1C)C(c1ccc(N3CCN(CC4CCN(c5ccc([C@@H]6c7ccc(O)cc7CC[C@@H]6c6ccccc6)cc5)CC4)CC3)cc1)=N[C@H](Cn1cccn1)c1nnc(C)n1-2` [III-216], the GI50 was over 2500 nM in experiment [1] (T-REx-293, 72 h); 50 to 500 nM in experiment [2] (Homo sapiens, MCF7, 144 h); over 2500 nM in experiment [3] (T-REx-293, 72 h).
As for `Cc1sc2c(c1C)C(c1ccc(N3CCC(O)(CN4CCN(c5ccc([C@@H]6c7ccc(O)cc7CC[C@@H]6c6ccccc6)nn5)CC4)CC3)cc1)=N[C@@H](C)c1nnc(C)n1-2` [III-217], the GI50 in experiment [1] (T-REx-293, 72 h) is under 50 nM; in experiment [2] (Homo sapiens, MCF7, 144 h), 50 to 500 nM; in experiment [3] (T-REx-293, 72 h), 50 to 500 nM.
In the case of `Cc1sc2c(c1C)C(c1ccc(N3CCC(O)(CN4CCN(c5ccc([C@H]6c7ccc(O)cc7CC[C@H]6c6ccccc6)nn5)CC4)CC3)cc1)=N[C@@H](C)c1nnc(C)n1-2` [III-218], the GI50 in experiment [1] (T-REx-293, 72 h) was under 50 nM; in experiment [2] (Homo sapiens, MCF7, 144 h) it was 50 to 500 nM; in experiment [3] (T-REx-293, 72 h), 50 to 500 nM.
As for `Cc1sc2c(c1C)C(c1ccc(N3CC(CN4CC(CN5CC(c6ccc([C@@H]7c8ccc(O)cc8CC[C@@H]7c7ccccc7)cc6)C5)C4)C3)cc1)=N[C@@H](C)c1nnc(C)n1-2` [III-219], the GI50 was under 50 nM in experiment [1] (T-REx-293, 72 h); 50 to 500 nM in experiment [2] (Homo sapiens, MCF7, 144 h); 50 to 500 nM in experiment [3] (T-REx-293, 72 h).
Consider `Cc1sc2c(c1C)C(c1ccc(N3CC(CN4CC(CC5CN(c6ccc([C@@H]7c8ccc(O)cc8CC[C@@H]7c7ccccc7)cc6)C5)C4)C3)cc1)=N[C@@H](C)c1nnc(C)n1-2` [III-220], for which the GI50 was under 50 nM in experiment [1] (T-REx-293, 72 h); 50 to 500 nM in experiment [2] (Homo sapiens, MCF7, 144 h); 50 to 500 nM in experiment [3] (T-REx-293, 72 h).
Regarding `Cc1sc2c(c1C)C(c1ccc(N3CC(CN4CC(CC5CN(c6ccc([C@@H]7c8ccc(O)cc8CC[C@@H]7c7ccccc7)cc6)C5)C4)C3)cc1)=N[C@@H](C)c1nnc(C)n1-2` [III-221], the GI50 was under 50 nM in experiment [1], under 50 nM in experiment [2] and 50 to 500 nM in experiment [3].
`Cc1sc2c(c1C)C(c1ccc(N3CC4(CCC(F)(CN5CCC(c6ccc([C@@H]7c8ccc(O)cc8CC[C@@H]7c7ccccc7)cc6)CC5)CC4)C3)cc1)=N[C@@H](C)c1nnc(C)n1-2` [III-222]: the GI50 in experiment [1] (T-REx-293, 72 h) was under 50 nM; in experiment [2] (Homo sapiens, MCF7, 144 h), 50 to 500 nM; in experiment [3] (T-REx-293, 72 h) it was over 2500 nM.
`Cc1sc2c(c1C)C(c1ccc(N3CCC(O)(CN4CCN(c5ccc([C@@H]6c7ccc(O)cc7CC[C@@H]6c6ccccc6)nn5)CC4)CC3)cc1)=N[C@H](Cc1ncco1)c1nnc(C)n1-2` [III-223]: the GI50 in experiment [1] (T-REx-293, 72 h) was in the range of 500 to 2500 nM; in experiment [2] (Homo sapiens, MCF7, 144 h), 500 to 2500 nM; in experiment [3] (T-REx-293, 72 h), 500 to 2500 nM.
`Cc1sc2c(c1C)C(c1ccc(N3CCC(O)(CN4CCN(c5ccc([C@H]6c7ccc(O)cc7CC[C@H]6c6ccccc6)nn5)CC4)CC3)cc1)=N[C@H](Cc1ncco1)c1nnc(C)n1-2` [III-224]: the GI50 in experiment [1] (T-REx-293, 72 h) was over 2500 nM; in experiment [2] (Homo sapiens, MCF7, 144 h), 50 to 500 nM; in experiment [3] (T-REx-293, 72 h), over 2500 nM.
Take `Cc1sc2c(c1C)C(c1ccc(N3CCC(O)(CN4CCN(c5ccc([C@H]6c7ccc(O)cc7CC[C@H]6c6ccccc6)nn5)CC4)CC3)cc1)=N[C@@H](Cc1ncco1)c1nnc(C)n1-2` [III-225]: the GI50 in experiment [1] (T-REx-293, 72 h) was under 50 nM; in experiment [2] (Homo sapiens, MCF7, 144 h), 50 to 500 nM; in experiment [3] (T-REx-293, 72 h), 50 to 500 nM.
Regarding `Cc1sc2c(c1C)C(c1ccc(N3CCC(O)(CN4CCN(c5ccc([C@@H]6c7ccc(O)cc7CC[C@@H]6c6ccccc6)nn5)CC4)CC3)cc1)=N[C@@H](Cc1ncco1)c1nnc(C)n1-2` [III-226], the GI50 was under 50 nM in experiment [1] (T-REx-293, 72 h); under 50 nM in experiment [2] (Homo sapiens, MCF7, 144 h); 50 to 500 nM in experiment [3] (T-REx-293, 72 h).
For the compound `Cc1sc2c(c1C)C(c1ccc(N3CC4(CCC(F)(CN5CCC(c6ccc([C@@H]7c8ccc(O)cc8CC[C@@H]7c7ccccc7)cc6)CC5)CC4)C3)cc1)=N[C@@H](Cc1ncco1)c1nnc(C)n1-2` [III-227], the GI50 in experiment [1] (T-REx-293, 72 h) was under 50 nM; in experiment [2] (Homo sapiens, MCF7, 144 h) it was 50 to 500 nM; in experiment [3] (T-REx-293, 72 h) it was over 2500 nM.
On the same counts, the results for `Cc1sc2c(c1C)C(c1ccc(C3CCC4(CCN(CN5CC(c6ccc([C@@H]7c8ccc(O)cc8CC[C@@H]7c7ccccc7)cc6)C5)CC4)C3)cc1)=N[C@@H](C)c1nnc(C)n1-2` (stereo partly drawn) [III-228] are under 50 nM, 50 to 500 nM and 500 to 2500 nM.
`Cc1sc2c(c1C)C(c1ccc(N3CC4(CCC(CN5CCC(c6ccc([C@@H]7c8ccc(O)cc8CC[C@@H]7c7ccccc7)cc6)CC5)CC4)C3)cc1)=N[C@@H](C)c1nnc(C)n1-2` [III-229]: the GI50 in experiment [1] (T-REx-293, 72 h) was under 50 nM; in experiment [2] (Homo sapiens, MCF7, 144 h), 50 to 500 nM; in experiment [3] (T-REx-293, 72 h) it was 500 to 2500 nM.
